Experimental data reported in patent EP4782434A1, “N-SULFONYL CARBOXAMIDE COMPOUND, AND PREPARATION METHOD THEREFOR AND USE THEREOF” (Nutshell Therapeutics (Shanghai) Co., Ltd., priority 2023, dated 2025).
In brackets after ≈: the same amount, converted by molar mass.

Columns and labels:
[1] = Pharmacokinetic study in rats; assay type: in vivo; settings: rat, plasma; male Wistar-Han rats, dose 30 mg/kg; route not stated in the table (oral gavage vehicle given)
Method: • 1. Experimental objective: To test the pharmacokinetics of the compounds in in vivo experiments using Wistar-Han rats. • 2. Experimental instruments and materials:
Animal: Wistar-Han rats (male)
Oral gavage: 1% methylcellulose aqueous solution.
Six male rats were used. On the evening prior to administration, the animals were fasted, with free access to water. During the experimental period, […] had free access to food and water. The animals were administered either by intravenous injection or intragastric gavage, after which the status of the animals was observed and any abnormal manifestations were recorded. Blood was collected via jugular vein puncture at 0.0833, 0.25, 1, 2, 4, 8, and 24 hours following intravenous administration; and at 0.25, 0.5, 1, 2, 4, 6, 8, and 24 hours following intragastric gavage. […]
A standard curve was established using the internal standard method, with the theoretical concentrations of the standard curve as the abscissa and the peak area ratio (peak area of test compound / peak area of internal standard) as the ordinate. […] Unknown samples were calculated via the standard curve. Pharmacokinetic parameters were calculated using the non-compartmental analysis (NCA) model of WinNonlin 8.2 software and presented in the report. […]

[2] = Thermodynamic solubility determination in FaSSIF; assay type: physicochemical; settings: thermodynamic from solid, FaSSIF pH 6.5, 37°C
Method: • (1) The control compound, diclofenac sodium, was purchased from Sigma. • (2) FaSSIF, FeSSIF & FaSSGF (FFF02) powders were purchased from Biorelevant. • (3) 1.5 mL flat-bottom glass vials (purchased from local suppliers); PTFE/silicone septa (BioTech Solutions); PTFE-coated stir bars (V&P Scientific); MultiScreenHTS HV (0.45 µm) 96-well plates (Millipore, MSHVN4510 or MSHVN4550); Eppendorf Thermomixer Comfort; Vacuum Manifold ORVMN96 (Orochem).
0.420 g of NaOH, 3.438 g of NaH2PO4, and 6.186 g of NaCl were dissolved in approximately 900 mL of ultrapure water, and the pH of the solution was adjusted to 6.5 using 1N NaOH or 1N HCl. The solution was then diluted to 1000 mL with ultrapure water at room temperature.
2.240 g of FaSSIF, FeSSIF, and FaSSGF powder was added to approximately 500 mL of Buffer A. The mixture was stirred until the powder was completely dissolved. The solution was then diluted to 1000 mL with Buffer A at room temperature.
The solution was allowed to stand for 2 hours. The solution became slightly opalescent and was ready for use at that point. Note: it was to be used within 48 hours at room temperature or within 24 hours at 37°C.
(2) The test compounds and control compounds were weighed for solubility measurement (approximately 1.0 mg each in three separate 1.5 mL glass vials).
(3) For each compound, one vial served as a standard, and the other two vials were used for solubility measurement in duplicate.
(4) Each compound was placed sequentially into its appropriate 96-well plate. One plate served as the standard plate and the other as the sample plate.
(5) Based on the mass of the sample in each vial on the sample plate, an appropriate volume (approximately 1000 µL) of FaSSIF was added to each vial of the solubility sample plate using a pipette. […]
All calculations were performed using Microsoft Excel. Analysis and quantification of the sample filtrates were completed via LC-MS/MS by qualitative and quantitative comparison against the peaks of standards with known concentrations. […]

| AUC(0-t) [1] | Cmax [1] | solubility at 24 h [2] | solubility ([2]; 24 hours) | Structure (SMILES) |
| --- | --- | --- | --- | --- |
| 11700 ng·h/mL | 8300 ng/mL | 511 µg/mL (≈ 1030 µM) |  | [2H]C([2H])([2H])O[C@@H](C)c1ccc(CS(=O)(=O)NC(=O)c2ccc(C([2H])([2H])[2H])cc2-c2cc(Cl)ncc2OC)cc1 [cpd-17, (S)-2-(2-Chloro-5-methoxypyridin-4-yl)-N-((4-(1-(methoxy-d3)ethyl)benzyl)sulfonyl)-4-(methyl-d3)benzamide] |
|  |  |  | 31 µg/mL (≈ 64.9 µM) | COc1cnc(Cl)cc1-c1cc(C)ncc1C(=O)Nc1nnc(OC[C@H]2COCCO2)s1 [Ref. 1, reference compound] |
|  |  | 669 µg/mL (≈ 1310 µM) |  | [2H]C([2H])([2H])O[C@@H](C)c1ccc(CS(=O)(=O)NC(=O)c2ccc(C([2H])([2H])[2H])cc2-c2cc(C(F)F)ncc2OC)cc1 [cpd-16, (S)-2-(2-(Difluoromethyl)-5-methoxypyridin-4-yl)-N-((4-(1-(methoxy-d3)ethyl)benzyl)sulfonyl)-4-(methyl-d3)benzamide] |
